From ChEMBL document CHEMBL1201862, “PubChem BioAssay data set” (2004)
Active and inactive are the calls of the source.

Assays:
[1] = target: T1, Intestinal-type alkaline phosphatase (Homo sapiens, UniProt P09923); experiment: human intestinal alkaline phosphatase activators, dose response, biochemical, luminescence, uHTS hits (AID 463120); format: functional
[2] = target: Intestinal-type alkaline phosphatase (Mus musculus, UniProt P24822); experiment: PubChem AID 488874; format: functional
[3] = target: T1, Intestinal-type alkaline phosphatase; experiment: human IAP activators, dose response, biochemical, luminescent, uHTS hits, set 2 (AID 488817); format: functional;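 note: potency of activators that raise enzyme activity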
[4] = target: T2, Alkaline phosphatase, tissue-nonspecific isozyme (Homo sapiens, UniProt P05186); experiment: TNAP enzyme activators, dose response, selectivity assay for human IAP activator project, biochemical, TNAP isozyme, human IAP uHTS hits (AID 488886); format: functional;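 note: potency of compounds raising TNAP activity as a selectivity check on IAP activators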
T2 sequence (P05186 whole entry): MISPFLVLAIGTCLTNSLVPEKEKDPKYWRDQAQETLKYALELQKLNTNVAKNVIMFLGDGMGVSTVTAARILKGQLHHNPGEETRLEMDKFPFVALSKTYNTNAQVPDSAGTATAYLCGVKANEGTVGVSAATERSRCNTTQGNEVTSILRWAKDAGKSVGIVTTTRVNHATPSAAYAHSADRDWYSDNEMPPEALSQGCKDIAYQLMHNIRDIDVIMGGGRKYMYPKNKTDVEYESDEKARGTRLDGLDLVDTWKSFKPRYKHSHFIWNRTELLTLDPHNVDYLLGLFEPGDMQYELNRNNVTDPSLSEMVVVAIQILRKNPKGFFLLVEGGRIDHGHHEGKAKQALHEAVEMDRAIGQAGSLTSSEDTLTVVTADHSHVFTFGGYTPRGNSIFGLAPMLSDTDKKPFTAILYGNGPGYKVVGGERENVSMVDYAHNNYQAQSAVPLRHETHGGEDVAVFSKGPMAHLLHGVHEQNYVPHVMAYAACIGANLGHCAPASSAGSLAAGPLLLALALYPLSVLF

[5] = target: Cytochrome P450 2D6 (Homo sapiens, UniProt P10635);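 note: CYP2D6 member of a cytochrome P450 panel assay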
[6] = target: T3, Cytochrome P450 1A2 (Homo sapiens, UniProt P05177);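 note: PubChem cytochrome P450 panel assay, CYP1A2 panel member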
T3 sequence (P05177 whole entry): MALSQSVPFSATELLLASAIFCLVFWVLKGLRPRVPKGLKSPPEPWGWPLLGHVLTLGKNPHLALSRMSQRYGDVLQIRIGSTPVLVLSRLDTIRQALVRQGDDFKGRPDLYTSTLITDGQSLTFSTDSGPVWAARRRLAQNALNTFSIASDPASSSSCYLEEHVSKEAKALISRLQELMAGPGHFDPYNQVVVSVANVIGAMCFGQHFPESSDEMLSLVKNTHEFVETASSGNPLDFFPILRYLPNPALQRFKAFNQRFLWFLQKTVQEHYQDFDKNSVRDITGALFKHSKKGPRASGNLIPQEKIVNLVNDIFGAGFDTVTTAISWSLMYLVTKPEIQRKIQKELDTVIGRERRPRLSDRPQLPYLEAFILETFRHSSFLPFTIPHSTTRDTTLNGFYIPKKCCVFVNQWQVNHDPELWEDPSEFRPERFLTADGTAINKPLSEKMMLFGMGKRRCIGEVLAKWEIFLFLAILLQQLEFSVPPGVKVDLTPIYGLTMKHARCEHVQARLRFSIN

[7] = target: Nucleotide-binding oligomerization domain-containing protein 1 (Homo sapiens, UniProt Q9Y239); experiment: NOD1 signaling inhibitors, SAR follow-up, revised (AID 2333); format: functional
[8] = tested on: HEK293; experiment: cells; details: Homo sapiens;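 note: cells exposed to compound for 14 hours overnight before viability readout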
[9] = target: Tumor necrosis factor (Homo sapiens, UniProt P01375); experiment: TNFa-triggered NF-kB activation inhibitors, SAR follow-up, cell-based, revised (AID 2337); format: functional
[10] = target: Lysine-specific demethylase 4C (Homo sapiens, UniProt Q9H3R0); experiment: GASC-1 (JMJD2C) histone demethylase inhibitors, dose response, biochemical, DELFIA europium, cherry-picked samples (AID 488835); format: functional
[11] = tested on: Vero; experiment: cells; format: functional; details: Chlorocebus sabaeus
[12] = HepG2 cell cytotoxicity, dose response, cytotoxicity control for Shn3 inhibitor project, CellTiter-Glo, cherry-picked (AID 624134); format: functional, cell-based
[13] = control 3'UTR Renilla luciferase suppression, dose response, counter-screen for Shn3 inhibitor project, cell-based, Clone20-Shn3RL, cherry-picked (AID 624133); format: functional
[14] = Shn3 3'UTR reporter inhibitors, dose response, cell-based, Clone20 osteoblasts, firefly luciferase, cherry-picked (AID 624132); format: functional;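 note: firefly luciferase luminescence from reporter carrying the Shn3 3'UTR in osteoblasts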
[15] = tested on: Vero; experiment: cells; format: functional, cell-based; details: Chlorocebus sabaeus
[16] = tested on: BJ; experiment: cytotoxicity toward BJ-TERT fibroblasts, dose response, cell-based, RAS-independent, luminescence (AID 1933); format: functional; details: Homo sapiens
[17] = tested on: INS1; experiment: beta cell apoptosis inhibitors, cytokine rescue, dose response, luminescence, retest (AID 449756); format: functional, cell-based; details: Rattus norvegicus;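 note: cell death triggered by IL-1 beta plus TNF-alpha plus IFN-gamma mixture; protective hits raise ATP signal compared with cytokine alone wells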
[18] = tested on: BJ; experiment: cytotoxicity toward Ras-transformed BJeLR fibroblasts, dose response, cell-based, alamar blue fluorescence, cherrypicked samples (AID 2631); format: functional; details: Homo sapiens;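 note: confirmatory dose-response assay in RAS-dependent BJ fibroblasts engineered with TERT, LT and ST, with cytotoxicity read by fluorescence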
[19] = C. albicans growth with fluconazole, confirmation, fluorescence, retest (AID 2467); format: functional, cell-based
[20] = cytotoxicity toward DRD oncogenic fibroblasts, dose response, cell-based, non-viral oncogenic, luminescence (AID 1934); format: functional; details: Homo sapiens
[21] = cytotoxicity in HEK-293T cells, dose response, cytotoxicity control for TCR NF-kB inhibitor project, luminescence, T-cell screen hits (AID 489026); format: functional, cell-based;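 note: cells exposed to compound about 14 hours before the viability readout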
[22] = tested on: BJ; experiment: cells; format: functional, cell-based; details: Homo sapiens
[23] = tested on: BJ; experiment: cytotoxicity toward BJ-TERT-LT-ST fibroblasts, dose response, cell-based, RAS-independent, luminescence (AID 1935); format: functional; details: Homo sapiens;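 note: BJ fibroblasts immortalized with TERT plus LT and ST oncogenes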
[24] = cells; format: functional, cell-based
[25] = cells; format: functional, cell-based; remark: listed apart in the source
[26] = NIH-3T3 fibroblast cytotoxicity, dose response, cytotoxicity control, cell-based, fluorescence, Alamar Blue, secondary assay (AID 2327); format: functional;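 note: NIH-3T3 mouse fibroblasts cultured with fluconazole at 8 µg/mL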

T1 sequence (P09923 whole entry): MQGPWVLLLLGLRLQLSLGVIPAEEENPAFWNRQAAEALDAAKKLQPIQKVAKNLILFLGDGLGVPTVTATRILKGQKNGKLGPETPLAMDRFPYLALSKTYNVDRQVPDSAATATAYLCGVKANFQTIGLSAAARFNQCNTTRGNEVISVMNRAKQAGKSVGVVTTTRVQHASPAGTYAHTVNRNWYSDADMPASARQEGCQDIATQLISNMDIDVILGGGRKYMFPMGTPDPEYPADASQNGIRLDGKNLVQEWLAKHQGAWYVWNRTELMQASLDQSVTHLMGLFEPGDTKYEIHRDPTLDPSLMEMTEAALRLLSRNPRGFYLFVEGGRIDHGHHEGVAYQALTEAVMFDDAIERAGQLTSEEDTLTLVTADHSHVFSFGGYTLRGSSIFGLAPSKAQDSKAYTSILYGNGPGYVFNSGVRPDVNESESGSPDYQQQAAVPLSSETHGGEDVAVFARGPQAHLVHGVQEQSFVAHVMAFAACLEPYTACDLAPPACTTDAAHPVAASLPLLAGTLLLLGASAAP
Chain of Intestinal-type alkaline phosphatase (Mus musculus, UniProt P24822) (P24822 whole entry): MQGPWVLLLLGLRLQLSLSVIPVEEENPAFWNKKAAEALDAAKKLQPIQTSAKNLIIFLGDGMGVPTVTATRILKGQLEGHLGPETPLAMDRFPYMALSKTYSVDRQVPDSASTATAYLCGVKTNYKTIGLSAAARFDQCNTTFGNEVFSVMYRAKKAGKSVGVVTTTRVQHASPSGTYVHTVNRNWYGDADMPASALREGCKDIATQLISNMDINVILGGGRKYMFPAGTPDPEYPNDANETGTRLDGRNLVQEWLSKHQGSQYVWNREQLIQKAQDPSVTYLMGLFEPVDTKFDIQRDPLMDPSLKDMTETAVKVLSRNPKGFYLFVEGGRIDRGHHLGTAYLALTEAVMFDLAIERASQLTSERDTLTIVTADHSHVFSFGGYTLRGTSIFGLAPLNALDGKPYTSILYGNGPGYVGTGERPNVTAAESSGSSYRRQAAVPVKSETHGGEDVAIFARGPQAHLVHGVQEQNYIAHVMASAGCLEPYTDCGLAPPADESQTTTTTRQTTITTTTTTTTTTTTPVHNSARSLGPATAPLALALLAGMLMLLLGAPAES
Chain of Cytochrome P450 2D6 (P10635 whole entry): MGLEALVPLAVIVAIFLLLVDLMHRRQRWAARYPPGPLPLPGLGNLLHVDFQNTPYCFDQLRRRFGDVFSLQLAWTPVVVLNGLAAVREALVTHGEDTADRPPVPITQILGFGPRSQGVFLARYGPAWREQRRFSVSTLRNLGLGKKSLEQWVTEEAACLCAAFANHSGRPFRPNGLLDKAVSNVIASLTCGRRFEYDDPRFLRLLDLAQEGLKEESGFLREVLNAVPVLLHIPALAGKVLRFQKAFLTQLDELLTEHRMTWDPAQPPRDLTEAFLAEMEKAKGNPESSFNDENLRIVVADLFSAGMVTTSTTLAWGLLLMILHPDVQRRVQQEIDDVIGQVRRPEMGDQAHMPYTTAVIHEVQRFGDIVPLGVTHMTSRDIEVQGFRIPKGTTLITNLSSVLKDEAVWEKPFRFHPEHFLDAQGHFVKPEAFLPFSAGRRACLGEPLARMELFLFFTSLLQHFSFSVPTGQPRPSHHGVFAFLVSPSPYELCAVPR
Chain of Lysine-specific demethylase 4C (Q9H3R0 whole entry): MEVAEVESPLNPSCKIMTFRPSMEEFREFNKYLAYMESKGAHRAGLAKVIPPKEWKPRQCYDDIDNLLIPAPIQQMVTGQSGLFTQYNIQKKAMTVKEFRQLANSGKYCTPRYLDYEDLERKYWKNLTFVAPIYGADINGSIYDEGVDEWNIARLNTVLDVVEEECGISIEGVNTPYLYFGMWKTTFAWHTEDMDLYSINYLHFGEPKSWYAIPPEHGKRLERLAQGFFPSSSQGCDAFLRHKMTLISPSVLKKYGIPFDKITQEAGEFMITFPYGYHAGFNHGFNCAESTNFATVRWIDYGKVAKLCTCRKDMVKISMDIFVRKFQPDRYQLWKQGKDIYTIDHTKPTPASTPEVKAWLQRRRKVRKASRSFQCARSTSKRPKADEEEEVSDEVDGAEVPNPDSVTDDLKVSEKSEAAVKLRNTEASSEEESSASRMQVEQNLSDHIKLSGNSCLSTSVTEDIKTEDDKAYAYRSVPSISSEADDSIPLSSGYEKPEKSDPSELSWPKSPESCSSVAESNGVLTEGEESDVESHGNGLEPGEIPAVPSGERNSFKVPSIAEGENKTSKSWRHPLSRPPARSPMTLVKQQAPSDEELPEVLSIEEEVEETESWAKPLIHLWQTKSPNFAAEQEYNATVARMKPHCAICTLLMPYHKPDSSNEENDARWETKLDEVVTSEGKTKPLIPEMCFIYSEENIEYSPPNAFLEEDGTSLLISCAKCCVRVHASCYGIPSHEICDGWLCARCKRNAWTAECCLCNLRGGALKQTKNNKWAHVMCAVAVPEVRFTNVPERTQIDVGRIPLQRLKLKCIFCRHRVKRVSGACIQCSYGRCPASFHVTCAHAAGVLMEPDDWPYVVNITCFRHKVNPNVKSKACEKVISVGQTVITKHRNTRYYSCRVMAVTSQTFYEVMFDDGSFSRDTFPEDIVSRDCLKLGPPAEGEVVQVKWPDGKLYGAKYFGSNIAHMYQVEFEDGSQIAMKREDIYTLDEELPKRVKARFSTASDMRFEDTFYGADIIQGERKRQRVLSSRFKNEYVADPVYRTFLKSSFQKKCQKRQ
Chain of Tumor necrosis factor (P01375 whole entry): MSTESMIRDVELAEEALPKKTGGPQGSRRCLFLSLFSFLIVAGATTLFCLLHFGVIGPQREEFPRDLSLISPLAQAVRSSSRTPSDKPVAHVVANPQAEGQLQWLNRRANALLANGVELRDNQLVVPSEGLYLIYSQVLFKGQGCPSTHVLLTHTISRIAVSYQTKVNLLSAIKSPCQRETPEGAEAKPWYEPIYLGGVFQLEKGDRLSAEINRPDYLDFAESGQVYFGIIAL
Chain of Nucleotide-binding oligomerization domain-containing protein 1 (Q9Y239 whole entry, the tested form may be a part): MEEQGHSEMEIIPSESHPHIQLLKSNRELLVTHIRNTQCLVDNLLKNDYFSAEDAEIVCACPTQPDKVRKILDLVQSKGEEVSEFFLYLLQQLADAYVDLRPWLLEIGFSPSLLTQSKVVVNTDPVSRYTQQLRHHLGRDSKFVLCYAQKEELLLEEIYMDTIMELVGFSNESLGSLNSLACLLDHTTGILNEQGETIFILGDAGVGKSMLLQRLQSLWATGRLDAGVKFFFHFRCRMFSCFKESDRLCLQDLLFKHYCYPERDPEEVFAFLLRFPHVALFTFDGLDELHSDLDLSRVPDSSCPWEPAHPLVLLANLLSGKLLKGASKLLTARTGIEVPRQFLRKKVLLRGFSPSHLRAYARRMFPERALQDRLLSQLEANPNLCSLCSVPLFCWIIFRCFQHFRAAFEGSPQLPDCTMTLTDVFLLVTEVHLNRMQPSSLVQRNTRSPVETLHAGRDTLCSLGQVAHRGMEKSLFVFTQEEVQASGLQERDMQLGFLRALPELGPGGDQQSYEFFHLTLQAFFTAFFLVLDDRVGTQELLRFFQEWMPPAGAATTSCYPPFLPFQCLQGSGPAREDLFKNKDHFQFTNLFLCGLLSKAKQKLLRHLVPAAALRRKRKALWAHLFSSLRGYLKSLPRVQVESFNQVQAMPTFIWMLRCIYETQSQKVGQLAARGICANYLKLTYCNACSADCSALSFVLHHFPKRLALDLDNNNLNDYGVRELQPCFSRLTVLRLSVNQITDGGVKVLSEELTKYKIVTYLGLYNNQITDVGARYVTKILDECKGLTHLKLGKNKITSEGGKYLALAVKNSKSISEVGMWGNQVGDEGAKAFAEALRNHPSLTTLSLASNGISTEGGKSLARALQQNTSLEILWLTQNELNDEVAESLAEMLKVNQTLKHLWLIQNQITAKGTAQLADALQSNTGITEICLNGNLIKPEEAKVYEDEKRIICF

Structure (SMILES): Cc1ccsc1C(=O)NNC(=S)NC1CCCCC1
- EC50 [1]: 10.3 µM (active)
- IC50 [2]: 56.7 µM (active)
- EC50 [3]: 15 µM (active)
- EC50 [4]: 13.9 µM (active)

Structure (SMILES): COc1cccc2c1C(=O)c1c(O)c3c(c(O)c1C2=O)C[C@](O)(C(C)=O)C[C@H]3O[C@@H]1C[C@H](N)[C@H](O)[C@H](C)O1
- AC50 [5]: inactive
- AC50 [6]: inactive

Structure (SMILES): CSc1ccc(NC(=O)c2ccc(CN3CCc4ccccc4C3)cc2)cc1
- IC50 [7]: 0.243 µM (active)
- IC50 [8]: 7.86 µM (active)
- IC50 [9]: 0.372 µM (active)

Structure (SMILES): CCN(C[C@H]1N[C@@](CC)(C(=O)OC)[C@H]2C(=O)N(Cc3ccccc3)C(=O)[C@@H]12)S(=O)(=O)c1ccc(C(C)(C)C)cc1
- AC50 [10]: 42.6 µM (active)

Structure (SMILES): CCCCn1c(-c2nonc2NC(=O)c2ccccc2Cl)nc2ccccc21
- CC50 [11]: 11.8 µM (active)
- AC50 [12]: > 70 µM (inactive)
- AC50 [13]: 1.11 µM (active)
- AC50 [14]: 1.39 µM (active)
- IC50 [15]: 0.73 µM (active)

Structure (SMILES): CCN(CC)c1ccc(/C=N/NC(=O)c2nnn(-c3nonc3N)c2C(C)C)c(O)c1
- EC50 [16]: 7.4 µM (inconclusive)
- AC50 [17]: < 0.195 µM (active)
- EC50 [1]: 10.5 µM (active)
- EC50 [18]: 0.199 µM (active)
- EC50 [19]: 0.401 µM (active)
- IC50 [2]: 78 µM (active)
- EC50 [20]: 8.09 µM (inconclusive)
- IC50 [21]: > 80 µM (inactive)
- EC50 [22]: 2.83 µM (active)
- EC50 [3]: 20.6 µM (active)
- EC50 [23]: 6.05 µM (inconclusive)
- EC50 [24]: 5.38 µM (active)
- EC50 [4]: 19 µM (active)
- EC50 [25]: > 350 µM (not active)
- EC50 [26]: 4 µM (active)
